According to patent US9968565B2, “Method for protection and improvement of liver health with meso-zeaxanthin compositions” (OMNIACTIVE HEALTH TECHNOLOGIES LIMITED, priority 2015, dated 2018):

System: HepG2 cells
Assay: In vitro fatty liver model, lipid content in oleic acid-treated HepG2 hepatocytes (Adipored staining)
Format: cell-based
Conditions: HepG2, 1.5 mM Oleic Acid + 100 uM
Method: HepG2 cells were seeded at a density of 5×10^4 cells/mL in 24 well plates and cultured to 100% confluency. Once 100% confluent, HepG2 Growth Media (ATCC-formulated Eagle's Minimum Essential Media (EMEM) 500 mL+10% FBS-50 mL+1% pen/strep antibiotic-5 mL) was […] fetal bovine serum (FBS) Free Growth Media (1 mL per well) for 24 hours. Following 24 hour FBS-free conditions, cells were treated with differing concentrations of Oleic Acid (0.5, 1.0, 1.5, 2.0 mM; Sigma O3008) to induce fatty liver conditions. From preliminary Adipored Staining data, 1.5 mM Oleic Acid (OA) was deemed the most appropriate concentration of OA to induce maximum steatosis (accumulation of large vacuoles of triglyceride fat in liver cells—thus it is abnormal retention of lipids within a cell) while remaining non-cytotoxic.

SMILES: C[C@@H]1O[C@@H](OC[C@H]2O[C@@H](Oc3c(-c4ccc(O)c(O)c4)oc4cc(O)cc(O)c4c3=O)[C@H](O)[C@@H](O)[C@@H]2O)[C@H](O)[C@H](O)[C@H]1O [Rutin]
- % Decrease in Lipid Content: 22%
- Lipid Content: 23088.67
